This is an account of results in patent US8030446B2, “Mutant proline-and-arginine rich peptides and methods for using the same” (Trustees of Dartmouth College, priority 2006, dated 2011).

The subject of assay [1] is genes regulating the NF-κB pathway in human umbilical vein endothelial cells (HUVEC). Briefly: NF-κB pathway-specific gene expression microarray in HUVEC treated with PR peptides. Type of assay: cell-based. Particulars: for overall inhibitory effect on NF-κB pathway-related gene expression (in words): FIG. 1, averaged % inhibition over 13 down-regulated genes, relative to PR11; for AKT1 gene expression / ATF2 gene expression / CREB1 gene expression / ELK3 gene expression / JNK1 gene expression / MEK4 gene expression / MEKK1 gene expression / MEKK2 gene expression / NF-κB1 gene expression / NF-κB2 gene expression / P38 MAPK gene expression / RANK gene expression / RIP gene expression / TAK1 gene expression / TBK1 gene expression / TRAF6 gene expression: PR peptides 1 μM, 8 hours, relative to untreated controls; for number of significantly reduced genes: of the 13 down-regulated genes of Tables 5 and 6. Here is the method:
Cell Culture. Human umbilical vein endothelial cells (HUVEC, Cambrex Bio Science Walkersville, Inc., East Rutherford, N.J.) were cultured in endothelial cell basal medium-2 supplemented with EGM-2 SINGLEQUOTS (Cambrex Bio Science Walkersville, Inc.) and FBS. Confluent HUVEC, passage 3-5, were starved overnight in medium supplemented with 0.5% FBS, 0.25% BSA and incubated with PR peptides (1 μM) for 8 hours in starvation medium.
Total RNA Extraction and Gene Profiling by Microarray. Total RNA extraction was performed using the RNEASY mini kit protocol (QIAGEN, Valencia, Calif.). The quality and quantity of total RNA was determined using RNA 6000 Nano chips (Agilent Technology, Santa Clara, Calif.).
Gene profiling was performed using pathway-specific gene expression array for NF-κB signaling transduction (HS-016.2, SuperArray Bioscience Corp.). A total of 96 cDNA fragments from genes related to NF-κB mediated signal transduction, including: NF-κB/IκB family, NF-κB responsive genes (adhesion molecules, cytokines), extracellular ligands, transmembrane receptors, adaptor proteins, signal transduction kinases, and transcription factors were printed in tetraspot format on 3.8×4.8 cm nylon array membrane. Total RNA (0.5 μg) was reverse-transcribed into cDNA labeled with biotin-dUTP according to the manufacture's protocol. After overnight hybridization at 60° C., array membranes were treated with alkaline phosphate-conjugated streptavidin followed by chemiluminescent alkaline phosphate substrate CDP-star (Applied Biosystems, Foster City, Calif.) and exposed to X-ray film. The data were extracted from raw images using […] software (SuperArray, Bioscience Corp.). After background subtraction, the level of gene expression was determined as signal intensity units relative to total array intensity signal. Statistical significant altered genes (PR peptides vs. control) at P values <0.05 were analyzed by Student's t-test, 2-tailed distribution. The data were expressed as fold change PR peptides relative to controls (untreated cells kept in similar conditions).

Assay [2] concerns the target T1, Mammalian (Human) 20s Proteasome (Homo sapiens, UniProt P25788).
T1 construct: purchased Boston Biochem (Cambridge, Mass.)
Briefly: Chymotrypsin-like (ChT-L) peptidase activity of 20S proteasome, N-succinyl-LLVY-AMC substrate. Format: biochemical. Particulars: chymotrypsin-like activity; for IC50: 15-minute pre-incubation, 1 hour at 37° C., pH 7.5, 0.03% SDS, read-out: I50. On the procedure:
Determination of Enzymatic Activity. Mammalian (Human) 20s Proteasome was purchased from Boston Biochem (Cambridge, Mass.); substrate, N-succinyl-LLVY-AMC was purchased from SIGMA (St. Louis, Mo.); and negative control, Lactacystin, was purchased from SIGMA. […] Activity was determined by measuring the amount of a fluorescence observed upon release of the MCA group after a 1 hour incubation at 37° C. in 50 mM sodium phosphate buffer at pH 7.5 containing 0.03% SDS. Inhibition by PR-peptide was measured after a 15-minute pre-incubation at 37° C. of each peptide with 20S proteasome, followed by the addition of the substrate and the one hour incubation.

The target in assay [3] is T1, Mammalian (Human) 20s Proteasome. The following applies: Gaczynska, et al. (2003); cited from earlier work.

Where two headings read alike, the source gives them in different places. Marks after values point to notes of the source that are not given here. Ends that are not written are not given here.

On to RRAPRPPYLPR [Peptide A3], for which the “overall inhibitory effect on NF-κB pathway-related gene expression (in words)” value (from here on “overall inhibitory effect”) in assay [1] was “more active than A1-PR11 and A2-PR11”. Besides, in assay [1] (HUVEC), the AKT1 gene expression stood at 1.7 fold change, the ATF2 gene expression is reported as −1.3 fold change, the CREB1 gene expression was −1.3 fold change and the ELK3 gene expression is reported as 1.3* fold change. Besides, in assay [1] (HUVEC), the JNK1 gene expression is −2.6 fold change, the MEK4 gene expression is listed as −2.7* fold change, the MEKK1 gene expression is given as −1.9 fold change and the MEKK2 gene expression is listed as −2.1* fold change. For the same sequence, in assay [1] (HUVEC), the NF-κB1 gene expression was −2.0 fold change, the NF-κB2 gene expression was −1.4 fold change, the “P38 MAPK gene expression” value is −1.9* fold change and the RANK gene expression is recorded as 1.7* fold change. Besides, in assay [1] (HUVEC), the RIP gene expression is given as −3.0* fold change, the TAK1 gene expression was −3.3* fold change, the TBK1 gene expression is −2.1* fold change and the TRAF6 gene expression was −1.4 fold change. Besides, the “number of significantly reduced genes” value in assay [1] (HUVEC) was determined as 5 genes. For the same sequence, the IC50 in assay [2] is 3150 nM.

As to RRKPRPPYLPR [Peptide K3], in assay [1], the “overall inhibitory effect” value is “not significantly different than PR11”. In assay [1] (HUVEC), the AKT1 gene expression is recorded as 1.7 fold change, the ATF2 gene expression is on record as −1.6* fold change, the CREB1 gene expression is recorded as −1.6 fold change and the ELK3 gene expression is 1.4^# fold change. Further, in assay [1] (HUVEC), the JNK1 gene expression is listed as −3.2* fold change, the MEK4 gene expression was −3.1* fold change, the MEKK1 gene expression is listed as −3.2 fold change and the MEKK2 gene expression is reported as −1.9^# fold change. In assay [1] (HUVEC), the NF-κB1 gene expression is reported as −2.2 fold change, the NF-κB2 gene expression is listed as −1.2 fold change, the “P38 MAPK gene expression” value is reported as −1.7* fold change and the RANK gene expression was 1.7* fold change. Moreover, in assay [1] (HUVEC), the RIP gene expression is −2.4* fold change, the TAK1 gene expression was −3.1^# fold change, the TBK1 gene expression is −1.8* fold change and the TRAF6 gene expression is given as −1.7 fold change. Also, the “number of significantly reduced genes” value in assay [1] (HUVEC) is on record as 8 genes. For the same sequence, the IC50 in assay [2] came out at 819 nM.

As for RRRPRPPELPR [Peptide E8], the “overall inhibitory effect” value in assay [1] is given as “reduced activity compared with PR11 or Trp12”. Further, in assay [1] (HUVEC), the AKT1 gene expression is given as 0.8 fold change, the ATF2 gene expression was −1.6* fold change, the CREB1 gene expression is −1.9 fold change and the ELK3 gene expression entry is “^−1.8^# fold change”. In addition, in assay [1] (HUVEC), the JNK1 gene expression is −1.2 fold change, the MEK4 gene expression is given as −1.2 fold change, the MEKK1 gene expression is reported as −1.0 fold change and the MEKK2 gene expression is −1.3 fold change. Further, in assay [1] (HUVEC), the NF-κB1 gene expression is −1.7 fold change, the NF-κB2 gene expression is −1.4 fold change, the “P38 MAPK gene expression” value was −1.5 fold change and the RANK gene expression was determined as 1.5 fold change. For the same sequence, in assay [1] (HUVEC), the RIP gene expression is on record as −3.6* fold change, the TAK1 gene expression is listed as −1.7* fold change, the TBK1 gene expression is on record as −2.3^# fold change and the TRAF6 gene expression is recorded as −1.2 fold change. The IC50 in assay [2] came out at 2370 nM.

With RRRPRPPELPRW [Peptide E8W12], the “overall inhibitory effect” value in assay [1] was “reduced activity compared with PR11 or Trp12”. Further, in assay [1] (HUVEC), the AKT1 gene expression is given as 1.8* fold change, the ATF2 gene expression is listed as −1.8* fold change, the CREB1 gene expression was −1.5 fold change and the ELK3 gene expression stood at 1.0 fold change. Moreover, in assay [1] (HUVEC), the JNK1 gene expression was −1.8 fold change, the MEK4 gene expression is listed as −2.4* fold change, the MEKK1 gene expression is given as −1.7 fold change and the MEKK2 gene expression is given as −1.1 fold change. Further, in assay [1] (HUVEC), the NF-κB1 gene expression is on record as −1.6 fold change, the NF-κB2 gene expression is −1.3 fold change, the “P38 MAPK gene expression” value was −1.1 fold change and the RANK gene expression was 1.8^# fold change. Further, in assay [1] (HUVEC), the RIP gene expression is reported as −1.5 fold change, the TAK1 gene expression is given as −1.2 fold change, the TBK1 gene expression is recorded as −1.6* fold change and the TRAF6 gene expression was −1.2 fold change. In assay [2], the “20S proteasome inhibiting activity (in words)” value is recorded as “behaved much the same as the Glu8 mutant” and the IC50 worked out at 2610 nM.

As for RRRPRPPY [PR8], the “20S proteasome inhibiting activity (in words)” value in assay [3] was “does not inhibit 20S activity”.

As for RRRPRPPYLPR [PR11, reference compound], the “number of genes whose expression was significantly affected” value in assay [1] (HUVEC, NF-κB array of 96 genes) amounted to 16 genes. In assay [1] (HUVEC), the AKT1 gene expression was 3.0* fold change, the ATF2 gene expression is −2.1* fold change, the CREB1 gene expression was −2.1* fold change and the ELK3 gene expression is listed as 1.9* fold change. Further, in assay [1] (HUVEC), the JNK1 gene expression is −6.5^# fold change, the MEK4 gene expression is listed as −3.1* fold change, the MEKK1 gene expression is recorded as −2.9* fold change and the MEKK2 gene expression is listed as −2.6* fold change. Further, in assay [1] (HUVEC), the NF-κB1 gene expression is −4.1* fold change, the NF-κB2 gene expression is listed as −3.3^# fold change, the “P38 MAPK gene expression” value is recorded as −3.6^# fold change and the RANK gene expression was 1.5* fold change. For the same sequence, in assay [1] (HUVEC), the RIP gene expression is on record as −10.4^# fold change, the TAK1 gene expression was −9.2^# fold change, the TBK1 gene expression was −2.8^# fold change and the TRAF6 gene expression is recorded as −2.4* fold change. The IC50 in assay [2] was determined as 805 nM.

In the case of RRRPRPPYLPRW [Peptide W12], in assay [1] (HUVEC), the AKT1 gene expression is listed as 2.5^# fold change, the ATF2 gene expression is reported as −2.7^# fold change, the CREB1 gene expression was −1.6 fold change and the ELK3 gene expression is 1.3^# fold change. In addition, in assay [1] (HUVEC), the JNK1 gene expression was −5.3* fold change, the MEK4 gene expression is given as −4.0^# fold change, the MEKK1 gene expression is listed as −4.6* fold change and the MEKK2 gene expression was −2.4^# fold change. Further, in assay [1] (HUVEC), the NF-κB1 gene expression was −2.6 fold change, the NF-κB2 gene expression is reported as −1.9* fold change, the “P38 MAPK gene expression” value is recorded as −2.5^# fold change and the RANK gene expression was 2.1^# fold change. In assay [1] (HUVEC), the RIP gene expression was −5.5* fold change, the TAK1 gene expression is −2.0^# fold change, the TBK1 gene expression is listed as −4.7^# fold change and the TRAF6 gene expression was −3.1* fold change. In addition, the “20S proteasome inhibiting activity (in words)” value in assay [2] was “did not noticeably alter PR11 activity”.
